According to patent publication US9321764B2, “Dihydro-pyrrolopyridinone inhibitors” (AbbVie Inc., priority 2013, dated 2016):

How the values were obtained:
BRD4 (BDI_K57-E168) = biological target: T1, BRD4 (BDI_K57-E168) (Homo sapiens, UniProt O60885); test: TR-FRET bromodomain binding assay, first bromodomain of BRD4; settings: His-tagged BD1, 100 nM Alexa647 probe; TR-FRET protocol A-E given per row
T1 construct: BD1: amino acids K57-E168; made in house
Procedure, shortened: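 His-tagged BRD4 BD1 (K57-E168), 8 nM, with 1 nM Eu-anti-His antibody and 100 nM Alexa647-labelled BET-inhibitor probe in pH 6.0 phosphate buffer, 2% DMSO. TR-FRET read after 1 h at room temperature. IC50 from 4-parameter fit, converted to Ki using probe Kd and concentration.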

[1] = system: breast cancer cell line MX-1; test: MX-1 cell line proliferation assay; format: cell-based; settings: Homo sapiens, MX1, 72 h, MX-1 cells, 3-day proliferation assay, Cell Titer Glo; read-out: Cellular proliferation EC50
Procedure, shortened: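 Cells seeded at 5000/well in RPMI 1640 with 10% FBS, allowed to adhere overnight at 37 °C, then exposed to compound at final 0.0001–3 μM for 3 days. Viability read by Cell Titer Glo luminescence, normalized to DMSO controls; EC50 from sigmoidal curve fit.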

BRD4 (BDII_E352-M457) = biological target: T2, BRD4 (BDII_E352-M457) (Homo sapiens, UniProt O60885); test: TR-FRET bromodomain binding assay, second bromodomain of BRD4; settings: His-tagged BD2, 30 nM Alexa647 probe; TR-FRET protocol A-E given per row
T2 construct: proliferation; Protocol; made in house
Procedure, shortened: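 His-tagged BRD4 BD2 ([…]) competed against an Alexa647-labelled BET-inhibitor probe in TR-FRET. Buffer was 20 mM sodium phosphate pH 6.0, 50 mM NaCl, 1 mM EDTA, 0.01% Triton X-100, 1 mM DTT, with method D DMSO series of 2.5 mM–800 nM (stock range). IC50 from 4-parameter fit, Ki from probe Kd and concentration.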

Row | Ki (BRD4 (BDI_K57-E168)) [nM] | EC50 [1] [nM] | Ki (BRD4 (BDII_E352-M457)) [nM] | SMILES
1 | 5.4 | 8 | 9.5 | Cn1cc(-c2cc(CS(C)(=O)=O)ccc2Oc2ccc(F)cc2F)c2cc(Cl)[nH]c(=O)c21 [Example 91, 5-chloro-3-{2-(2,4-difluorophenoxy)-5-[(methylsulfonyl)methyl]phenyl}-1-methyl-1,6-dihydro-7H-pyrrolo[2,3-c]pyridin-7-one]
2 | 1.7 | 8 | 1.8 | CCc1cc2c(-c3cc(CS(C)(=O)=O)ccc3Oc3ccc(F)cc3F)cn(C)c2c(=O)[nH]1 [Example 92, 3-{2-(2,4-difluorophenoxy)-5-[(methylsulfonyl)methyl]phenyl}-5-ethyl-1-methyl-1,6-dihydro-7H-pyrrolo[2,3-c]pyridin-7-one]
3 | 4.2 | 8 | 2.1 | Cn1cc(-c2cc(CS(=O)(=O)N3CCOCC3)ccc2Oc2ccc(F)cc2F)c2cc[nH]c(=O)c21 [Example 95, 3-{2-(2,4-difluorophenoxy)-5-[(morpholin-4-ylsulfonyl)methyl]phenyl}-1-methyl-1,6-dihydro-7H-pyrrolo[2,3-c]pyridin-7-one]
4 | 6.9 | 15 | 11 | Cn1cc(-c2cc(CS(N)(=O)=O)ccc2Oc2ccc(F)cc2F)c2cc[nH]c(=O)c21 [Example 96, 1-[4-(2,4-difluorophenoxy)-3-(1-methyl-7-oxo-6,7-dihydro-1H-pyrrolo[2,3-c]pyridin-3-yl)phenyl]methanesulfonamide]
5 | 4.1 | 9 | 4.8 | CNS(=O)(=O)Cc1ccc(Oc2ccc(F)cc2F)c(-c2cn(C)c3c(=O)[nH]ccc23)c1 [Example 100, 1-[4-(2,4-difluorophenoxy)-3-(1-methyl-7-oxo-6,7-dihydro-1H-pyrrolo[2,3-c]pyridin-3-yl)phenyl]-N-methylmethanesulfonamide]
6 | 2.2 | 5 | 2.5 | CN(C)S(=O)(=O)Cc1ccc(Oc2ccc(F)cc2F)c(-c2cn(C)c3c(=O)[nH]ccc23)c1 [Example 101, 1-[4-(2,4-difluorophenoxy)-3-(1-methyl-7-oxo-6,7-dihydro-1H-pyrrolo[2,3-c]pyridin-3-yl)phenyl]-N,N-dimethylmethanesulfonamide]
7 | 95 | 739 | 81 | Cn1cc(-c2cc(CS(=O)(=O)NC3CCCCC3)ccc2Oc2ccc(F)cc2F)c2cc[nH]c(=O)c21 [Example 102, N-cyclohexyl-1-[4-(2,4-difluorophenoxy)-3-(1-methyl-7-oxo-6,7-dihydro-1H-pyrrolo[2,3-c]pyridin-3-yl)phenyl]methanesulfonamide]
8 | 8.4 | 89 | 4.9 | Cn1cc(-c2cc(CS(=O)(=O)N3CCCCC3)ccc2Oc2ccc(F)cc2F)c2cc[nH]c(=O)c21 [Example 103, 3-{2-(2,4-difluorophenoxy)-5-[(piperidin-1-ylsulfonyl)methyl]phenyl}-1-methyl-1,6-dihydro-7H-pyrrolo[2,3-c]pyridin-7-one]
9 | 72 | > 3000 | 107 | Cn1cc(-c2cc(CS(=O)(=O)Nc3nccs3)ccc2Oc2ccc(F)cc2F)c2cc[nH]c(=O)c21 [Example 104, 1-[4-(2,4-difluorophenoxy)-3-(1-methyl-7-oxo-6,7-dihydro-1H-pyrrolo[2,3-c]pyridin-3-yl)phenyl]-N-(1,3-thiazol-2-yl)methanesulfonamide]
10 | 31 | 338 | 67 | CCS(=O)(=O)NCc1ccc(Oc2ccc(F)cc2F)c(-c2cn(C)c3c(=O)[nH]ccc23)c1 [Example 106, N-[4-(2,4-difluorophenoxy)-3-(1-methyl-7-oxo-6,7-dihydro-1H-pyrrolo[2,3-c]pyridin-3-yl)benzyl]ethanesulfonamide]
11 | 93 | 460 | 181 | Cn1cc(-c2cc(S(C)(=O)=O)ccc2Oc2ccc(F)cc2F)c2c(Cl)c[nH]c(=O)c21 [Example 108, 4-chloro-3-[2-(2,4-difluorophenoxy)-5-(methylsulfonyl)phenyl]-1-methyl-1,6-dihydro-7H-pyrrolo[2,3-c]pyridin-7-one]
12 | 776 | 1510 | 382 | Cn1cc(-c2cc(CNCC3CC3)ccc2Oc2ccc(F)cc2F)c2cc[nH]c(=O)c21 [Example 118, 3-[5-{[(cyclopropylmethyl)amino]methyl}-2-(2,4-difluorophenoxy)phenyl]-1-methyl-1,6-dihydro-7H-pyrrolo[2,3-c]pyridin-7-one]

The remaining lines, values behind:

Row | SMILES | Ki (BRD4 (BDI_K57-E168)) [nM] | EC50 [1] [nM] | Ki (BRD4 (BDII_E352-M457)) [nM]
13 | CCS(=O)(=O)c1ccc(Oc2ccc(C#N)cc2)c(-c2cn(C)c3c(=O)[nH]ccc23)c1 [Example 78, 4-[4-(ethylsulfonyl)-2-(1-methyl-7-oxo-6,7-dihydro-1H-pyrrolo[2,3-c]pyridin-3-yl)phenoxy]benzonitrile] | 20 | 88 | 73
14 | CCS(=O)(=O)c1ccc(Oc2ccccc2C#N)c(-c2cn(C)c3c(=O)[nH]ccc23)c1 [Example 83, 2-[4-(ethylsulfonyl)-2-(1-methyl-7-oxo-6,7-dihydro-1H-pyrrolo[2,3-c]pyridin-3-yl)phenoxy]benzonitrile] | 43 | 100 | 46
15 | CCS(=O)(=O)c1ccc(Oc2c(C)nn(C)c2C)c(-c2cn(C)c3c(=O)[nH]ccc23)c1 [Example 90, 3-{5-(ethylsulfonyl)-2-[(1,3,5-trimethyl-1H-pyrazol-4-yl)oxy]phenyl}-1-methyl-1,6-dihydro-7H-pyrrolo[2,3-c]pyridin-7-one] | 54 | 96 | 39
16 | Cn1cc(-c2cc(S(=O)(=O)N3CCc4ccccc43)ccc2OCC2CC2)c2cc[nH]c(=O)c21 [Example 97, 3-[2-(cyclopropylmethoxy)-5-(2,3-dihydro-1H-indol-1-ylsulfonyl)phenyl]-1-methyl-1,6-dihydro-7H-pyrrolo[2,3-c]pyridin-7-one] | 158 | 398 | 81
17 | Cn1cc(-c2cc(CN3CCNCC3)ccc2Oc2ccc(F)cc2F)c2cc[nH]c(=O)c21 [Example 105, 3-[2-(2,4-difluorophenoxy)-5-(piperazin-1-ylmethyl)phenyl]-1-methyl-1,6-dihydro-7H-pyrrolo[2,3-c]pyridin-7-one] | 528 | 806 | 329
18 | Cn1cc(-c2cc(S(C)(=O)=O)ccc2OCCC2CC2)c2c(Cl)c[nH]c(=O)c21 [Example 109, 4-chloro-3-[2-(2-cyclopropylethoxy)-5-(methylsulfonyl)phenyl]-1-methyl-1,6-dihydro-7H-pyrrolo[2,3-c]pyridin-7-one] | 57 | 268 | 67
19 | Cn1cc(-c2cc(CS(C)(=O)=O)ccc2NCC2CC2)c2cc[nH]c(=O)c21 [Example 110, 3-{2-[(cyclopropylmethyl)amino]-5-[(methylsulfonyl)methyl]phenyl}-1-methyl-1,6-dihydro-7H-pyrrolo[2,3-c]pyridin-7-one] | 61 | 136 | 215
20 | Cn1cc(-c2cc(CN3CCC(N)CC3)ccc2Oc2ccc(F)cc2F)c2cc[nH]c(=O)c21 [Example 111, 3-{5-[(4-aminopiperidin-1-yl)methyl]-2-(2,4-difluorophenoxy)phenyl}-1-methyl-1,6-dihydro-7H-pyrrolo[2,3-c]pyridin-7-one] | 908 | 713 | 337
21 | CN(C)C1CCN(Cc2ccc(Oc3ccc(F)cc3F)c(-c3cn(C)c4c(=O)[nH]ccc34)c2)CC1 [Example 113, 3-[2-(2,4-difluorophenoxy)-5-{[4-(dimethylamino)piperidin-1-yl]methyl}phenyl]-1-methyl-1,6-dihydro-7H-pyrrolo[2,3-c]pyridin-7-one] | 583 | 1630 | 506
22 | Cn1cc(-c2cc(CNCCC(C)(C)C)ccc2Oc2ccc(F)cc2F)c2cc[nH]c(=O)c21 [Example 114, 3-[2-(2,4-difluorophenoxy)-5-{[(3,3-dimethylbutyl)amino]methyl}phenyl]-1-methyl-1,6-dihydro-7H-pyrrolo[2,3-c]pyridin-7-one] | 1410 | > 3000 | 1200
23 | COC1CCN(Cc2ccc(Oc3ccc(F)cc3F)c(-c3cn(C)c4c(=O)[nH]ccc34)c2)CC1 [Example 115, 3-{2-(2,4-difluorophenoxy)-5-[(4-methoxypiperidin-1-yl)methyl]phenyl}-1-methyl-1,6-dihydro-7H-pyrrolo[2,3-c]pyridin-7-one] | 1350 | 1420 | 1330
24 | CN1CCN(Cc2ccc(Oc3ccc(F)cc3F)c(-c3cn(C)c4c(=O)[nH]ccc34)c2)CC1 [Example 116, 3-{2-(2,4-difluorophenoxy)-5-[(4-methylpiperazin-1-yl)methyl]phenyl}-1-methyl-1,6-dihydro-7H-pyrrolo[2,3-c]pyridin-7-one] | 93 | 578 | 145
